# Test results from paper PMC11071266, “The putative proton-coupled organic cation antiporter is involved in uptake of triptans into human brain capillary endothelial cells” (Fluids and Barriers of the CNS, 2024).
# Several values for one entry are separate records, joined by “and”; a condition that tells them apart may be missing. Equal entries are not always repeated. Entries after “also recorded” stand apart in the source; their conditions may differ. Where two headings read alike, the source gives them in different places.
# How the values were obtained:
# [1] = Physicochemical properties extracted from databases
# Text: Triptans are a relatively homogeneous group of drug compounds with similar physicochemical properties, including molecular weights < 400 g/mol and a low to moderate lipophilicity (cLogD values ranging from − 2.1–0.18). […] As a consequence, it is unlikely that triptans cross the brain microvascular endothelium through passive diffusion to a clinically relevant extent. Table 1 summarizes structures and physicochemical properties of the triptans, as well as oxycodone and pyrilamine, which are two prototypical H^+/OC antiporter substrates included in this study.
# [2] = system: H^+/OC antiporter; test: Inhibition of [^3H]-pyrilamine uptake into hCMEC/D3 cells; assay type: cell-based, human
# Protocol: (§1) The immortalized human cerebral microvascular endothelial cell line (hCMEC/D3) was maintained in T75-flasks coated with collagen type I from calf skin (C9791, 18.7 μg/mL) and cultured in EBM®-2 medium (Lonza, Basel, Schweiz) supplemented with 5% (v/v) fetal bovine serum (FBS, 10270, Life Technologies, CA, USA or SH3008803, ThermoFisher Scientific, MA, USA), 100 U/mL penicillin and 100 μg/ml streptomycin, 1 ng/mL human basic fibroblast growth factor (bFGF), 1.4 μM hydrocortisone, 1% (v/v) chemically defined lipid concentrate (ThermoFisher Scientific, MA, USA), 10 mM N-2-hydroxyethylpiperazine-N-2-ethane sulfonic acid (HEPES) and 5 μg/mL ascorbic acid (5% CO2, 37 °C). […] For experiments, cells were seeded into 24-well plates (6.7·10^4 cells/cm^2) and cultured for four continuous days. The cells were used for experiments between passage 3–31.
# (§2) The cells were equilibrated in hHBSS with or without inhibitor for 15 min (37 °C, 90 rpm). The compound of interest was spiked into the hHBSS followed by incubation for a designated time. The timeframe of the initial uptake rate was validated into hCMEC/D3 cells (Fig. 1 and Additional file 1). The experiment was terminated by washing three times with ice-cold HBSS supplemented with 0.0375% (v/v) sodium bicarbonate.
# The inhibitory constant at 50% inhibition (IC50) was determined by fitting the uptake flux (Jss) as function of the logarithmic inhibitor concentration to Eq. 2.2 Jss=Jmin+(Jmax-Jmin)/1+10^logIC50-InH where [I] is the inhibitor concentration, nH is the Hill coefficient.
# The hCMEC/D3 cells were used for [^3H]-pyrilamine inhibition studies between passage 3–6 (pyrilamine, oxycodone), 16–18 (almotriptan), 7–13 (eletriptan), 25–27 (frovatriptan), 3–8 (naratriptan), 16–18 (rizatriptan), 12–14 (sumatriptan), and 14–16 (zolmitriptan).
# The cells were permeabilized using 0.1% (v/v) Triton X-100 in ultrapure water (ELGA, Buckinghamshire, England) for 10 min at room temperature. Thereafter, the cells were scraped off the bottom of the wells, transferred to scintillation vials, and mixed with 2 mL of Ultima Gold 241 TM (Perkin Elmer, MA, USA). The samples were analyzed using a Tri-Carb 2910 TR Liquid Scintillation Analyzer (Perkin Elmer, MA, USA).
# [3] = system: H^+/OC antiporter; set-up: method as in PMID 35955563; settings: trans-stimulation in hCMEC/D3 cells; cited from earlier work
# [4] = biological target: P-gp (Homo sapiens, UniProt P08183); set-up: expressed in transfected cells; host or cells: IPEC-J2 (porcine ileum epithelial cell line); method as in PMID 12438524; settings: MDR1-MDCKII cell line; cited from earlier work
# P-gp (Homo sapiens, UniProt P08183), sequence (P08183 whole entry): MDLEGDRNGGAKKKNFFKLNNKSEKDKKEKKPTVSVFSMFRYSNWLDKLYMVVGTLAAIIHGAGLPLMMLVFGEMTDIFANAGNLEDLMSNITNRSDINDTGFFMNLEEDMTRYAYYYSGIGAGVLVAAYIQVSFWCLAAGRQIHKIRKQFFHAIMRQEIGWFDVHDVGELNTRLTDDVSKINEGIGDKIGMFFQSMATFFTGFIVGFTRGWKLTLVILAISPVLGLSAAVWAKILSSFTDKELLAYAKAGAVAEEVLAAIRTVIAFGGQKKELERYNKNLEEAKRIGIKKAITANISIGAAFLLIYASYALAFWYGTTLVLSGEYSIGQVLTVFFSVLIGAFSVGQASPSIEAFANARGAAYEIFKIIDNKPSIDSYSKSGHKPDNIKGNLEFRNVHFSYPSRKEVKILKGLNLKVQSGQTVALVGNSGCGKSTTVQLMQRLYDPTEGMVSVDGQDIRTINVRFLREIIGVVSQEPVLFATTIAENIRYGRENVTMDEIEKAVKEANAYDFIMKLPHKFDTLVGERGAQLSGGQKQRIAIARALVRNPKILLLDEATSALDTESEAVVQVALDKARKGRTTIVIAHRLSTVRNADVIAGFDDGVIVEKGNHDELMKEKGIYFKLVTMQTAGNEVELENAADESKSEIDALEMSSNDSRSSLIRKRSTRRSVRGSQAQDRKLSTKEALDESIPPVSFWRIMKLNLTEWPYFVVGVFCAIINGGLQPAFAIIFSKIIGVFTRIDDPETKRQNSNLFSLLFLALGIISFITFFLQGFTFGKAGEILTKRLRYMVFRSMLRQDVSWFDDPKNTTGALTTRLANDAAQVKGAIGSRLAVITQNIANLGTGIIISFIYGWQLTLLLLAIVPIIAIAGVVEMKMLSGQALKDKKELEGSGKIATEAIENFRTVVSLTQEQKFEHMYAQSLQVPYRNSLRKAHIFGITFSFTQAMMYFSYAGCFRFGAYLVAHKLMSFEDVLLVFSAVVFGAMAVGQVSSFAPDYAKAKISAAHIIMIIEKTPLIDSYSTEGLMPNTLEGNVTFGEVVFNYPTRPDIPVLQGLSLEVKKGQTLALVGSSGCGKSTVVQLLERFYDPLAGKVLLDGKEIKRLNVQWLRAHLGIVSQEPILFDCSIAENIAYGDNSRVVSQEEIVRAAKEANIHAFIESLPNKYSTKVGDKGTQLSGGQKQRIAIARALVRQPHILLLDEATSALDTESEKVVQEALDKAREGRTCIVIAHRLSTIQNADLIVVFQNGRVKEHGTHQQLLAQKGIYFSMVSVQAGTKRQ
# [5] = cited from earlier work; for Strongest basic pKa: extracted from DrugBank
# [6] = system: organic cation transporter 1 (OCT1); set-up: method as in PMID 35955563; settings: cited from earlier work
# [7] = system: H^+/OC antiporter; test: Concentration-dependent cellular uptake into hCMEC/D3 cells (Michaelis-Menten kinetics); assay type: cell-based, human; settings: for Jmax / Km / Apparent Km: uptake into hCMEC/D3 cells; for Km: read-out: Apparent Km; for Concentration-dependent uptake (saturability): hCMEC/D3 cells, tested concentration range; for Association with H^+/OC antiporter: summary of uptake and inhibition studies in hCMEC/D3 cells
# Protocol: as §1, §2
# To assess the concentration-dependent uptake, the uptake flux was fitted to the Michaelis–Menten equation, Eq. 1.1 Jss=Jmax[S]/Km+[S] where Jss represents flux under steady state, Jmax is the maximal flux, [S] is the substrate concentration, and Km is the Michaelis–Menten constant.
# The hCMEC/D3 cells were used for concentration-dependent uptake studies between passage 21–23 (pyrilamine), 11–13 (oxycodone), 12–14 (almotriptan), 16–18 (eletriptan), and 12–14 (sumatriptan).
# (§3) The cells were permeabilized using 50% (v/v) acetonitrile (HPLC LC–MS grade, VWR International S.A.S, Soeborg, Denmark) in ultrapure water (ELGA, Buckinghamshire, England) for 10 min at room temperature. Thereafter, the cells were scraped off the bottom of the wells and transferred to HPLC vials. Samples from bidirectional transport experiments were transferred directly into HPLC vials. All samples were stored at – 18 °C for later analysis. Calibration curves with standards in the range of 1 or 5–1000 ng/mL were dissolved in 50% (v/v) acetonitrile in ultrapure water (ELGA, Buckinghamshire, England), or in hHBSS(-) for analysis of bidirectional transport samples.
# (§4) Liquid chromatography tandem mass spectrometry (LC–MS/MS) were performed using electrospray ionization in positive mode on a micromass Quattro micro™ API tandem quadrupole mass spectrometer (Waters, MA, USA) or an Ultivo triple quadrupole mass spectrometer (Agilent Technologies, CA, USA) coupled to Agilent HPLC system 1100 Series or 1260 Series (Agilent Technologies, CA, USA California), respectively. Applied columns were an InfinityLab Poroshell 120 EC-C18 (3.0 × 50 mm; 2.7 micron, Agilent Technologies, CA, USA) or a Kinetex 2.6 μm XB-C18 (100 Å, 100 × 4.6 mm, Phenomenex Inc., CA, USA). An overview of applied HPLC and MS/MS parameters can be found in Additional file 2 and Additional file 3, respectively. The data acquisition software was MassLynx (V4.1, Waters, MA, USA).
# The protein content of hCMEC/D3 cells was determined for normalization purposes. Cells were washed with ice-cold phosphate buffered saline following cell lysis in cell extraction buffer (FNN0011, Thermo Fisher Scientific, MA, USA) supplemented with 1 × cOmplete™ Protease Inhibitor Cocktail (04693116001, Roche, Basel, Schweiz), 1 mM phenylmethylsulfonyl fluoride, and […] for 30 min on ice.
# [8] = system: H^+/OC antiporter; test: Cellular uptake into hCMEC/D3 cells in absence or presence of pyrilamine or oxycodone; assay type: cell-based, human; settings: for Inhibition by oxycodone (of the compound's uptake) / Inhibition by pyrilamine (of the compound's uptake): triptan 50 µM, asterisks = P level; for Inhibition by oxycodone (of the compound's uptake): 500 µM oxycodone; for Inhibition by pyrilamine (of the compound's uptake): 500 µM pyrilamine
# Protocol: as §2
# The hCMEC/D3 cells were used for time-dependent uptake studies between passage 3–5 (pyrilamine), 7–9 (oxycodone), 6–8 (almotriptan), and 24–31 (eletriptan).
# The hCMEC/D3 cells were used for uptake studies of almotriptan, eletriptan, and sumatriptan in the presence of pyrilamine and oxycodone between passage 21–23.
# as §3, §4
# [9] = system: H^+/OC antiporter; test: Cellular uptake into hCMEC/D3 cells after intra- and extracellular pH manipulation; assay type: cell-based, human; settings: for Cellular uptake after intracellular alkalization: acute exposure to 30 mM NH4Cl vs control pH 7.4; for Cellular uptake at extracellular acidification: extracellular pH 6.8 vs pH 7.4; for Cellular uptake at extracellular alkalization: extracellular pH 8.2 vs pH 7.4; for Cellular uptake after intracellular acidification: preexposure to 30 mM NH4Cl followed by media change vs control; for Proton-gradient dependence of uptake: hCMEC/D3 cells
# [10] = system: P-gp; set-up: method as in PMID 12814962; settings: brain Kp in wild type and mdr1a knockout mice; cited from earlier work
# [11] = [^3H]-pyrilamine 1 µCi/mL, 48 nM, read-out: Apparent IC50 on [^3H]-pyrilamine uptake
# [12] = read-out: Apparent IC50 on [^3H]-pyrilamine uptake, [^3H]-pyrilamine 1 µCi/mL, 48 nM
Structure (SMILES),Overall charge pH 7.4 [1],"IC50 [2, 11]",cLogD pH 7.4 ([5]; extracted from ChemSpider),Cellular uptake after intracellular alkalization [9],Cellular uptake at extracellular acidification [9],Cellular uptake at extracellular alkalization [9],Cellular uptake after intracellular acidification [9],Strongest basic pKa [5],cLogD pH 7.4 [5],also measured
CN(C)CCc1c[nH]c2ccc(C[C@H]3COC(=O)N3)cc12 [Zolmitriptan],Positive,1730 ± 1210 µM,0.4,,,,,,,H^+/OC antiporter substrate [3]: did not appear to be H^+/OC antiporter substrate candidates; ER [4]: 2.48; OCT1 substrate [6]: substrates of OCT1
COc1ccc2c3c1O[C@H]1C(=O)CC[C@@]4(O)[C@@H](C2)N(C)CC[C@]314 [Oxycodone],Positive,,0.5,reduced cellular uptake,reduced cellular uptake,increased cellular uptake,increased cellular uptake,8.8,,"Jmax [7]: 5.3 ± 1.0 nmol·min^−1·mg protein^−1; Km ([7]; listed as oxycodone): ~130 µM; Km [7]: 130 ± 57 µM; IC50 [2, 12]: 225 ± 57 µM; IC50 ([2]; read-out: Apparent IC50 on [^3H]-pyrilamine uptake, [^3H]-pyrilamine 1 µCi/mL, 48 nM, listed as oxycodone): ~225 µM; Time-dependent uptake in presence of 1000 µM pyrilamine ([8]; oxycodone 500 µM): reduced"
CN(C)CCc1c[nH]c2ccc(CS(=O)(=O)N3CCCC3)cc12 [Almotriptan],Positive,~305 µM and 305 µM,0.3,decreased,reduced,increased,statistically significant increase,9.6,,Concentration-dependent uptake (saturability) [7]: did not show saturable uptake; Association with H^+/OC antiporter [7]: (substrate) decent inhibitor; Apparent Km [7]: not saturable (in tested range); Inhibition by oxycodone (of the compound's uptake) [8]: no; Inhibition by oxycodone (of the compound's uptake) ([8]; listed as almotriptan): did not inhibit; Inhibition by pyrilamine (of the compound's uptake) [8]: slightly inhibited; also recorded: yes (*); Proton-gradient dependence of uptake [9]: yes
CNS(=O)(=O)Cc1ccc2[nH]cc(CCN(C)C)c2c1 [Sumatriptan],Positive,,,decreased,reduced,increased,decreased uptake,,,"Concentration-dependent uptake (saturability) [7]: linear increase as function of increasing concentrations; Association with H^+/OC antiporter [7]: (substrate) very poor inhibitor; Apparent Km [7]: not saturable (in tested range); IC50 [2, 12]: 1460 ± 189 µM; Inhibition by oxycodone (of the compound's uptake) [8]: yes (***); Inhibition by oxycodone (of the compound's uptake) ([8]; listed as sumatriptan): inhibited the uptake of sumatriptan; Inhibition by pyrilamine (of the compound's uptake) [8]: yes (**); Inhibition by pyrilamine (of the compound's uptake) ([8]; listed as sumatriptan): inhibited the uptake of sumatriptan; Proton-gradient dependence of uptake [9]: yes"
CN(C)CCc1c[nH]c2ccc(Cn3cncn3)cc12 [Rizatriptan],Positive,719 ± 243 µM,,,,,,,0.04,P-gp substrate [10]: substrates of P-gp
COc1ccc(CN(CCN(C)C)c2ccccn2)cc1 [Pyrilamine],Positive,11 ± 6 µM,,reduced cellular uptake,reduced cellular uptake,increased cellular uptake,increased cellular uptake,,1.1,"Jmax [7]: 5.1 ± 0.7 nmol·min^−1·mg protein^−1; Km ([7]; listed as pyrilamine): ~93 µM; Km [7]: 93 ± 17 µM; IC50 ([2]; [^3H]-pyrilamine 1 µCi/mL, 48 nM, listed as pyrilamine, read-out: Apparent IC50 on [^3H]-pyrilamine uptake): ~11 µM; Time-dependent uptake in presence of 500 µM oxycodone ([8]; [^3H]-pyrilamine 48 nM): reduced"
CN[C@@H]1CCc2[nH]c3ccc(C(N)=O)cc3c2C1 [Frovatriptan],Positive,,,,,,,,− 1.5,"Apparent IC50 on [^3H]-pyrilamine uptake ([2]; [^3H]-pyrilamine 1 µCi/mL, 48 nM): did not exhibit sufficient inhibition; H^+/OC antiporter substrate [3]: did not appear to be H^+/OC antiporter substrate candidates; OCT1 substrate [6]: substrates of OCT1"
CNS(=O)(=O)CCc1ccc2[nH]cc(C3CCN(C)CC3)c2c1 [Naratriptan],Positive,460 ± 41 µM,,,,,,9.2,,P-gp substrate [10]: substrates of P-gp
